The source of these data is US7605227B2, “Melanoma antigen peptide analogues” (MannKind Corporation, priority 2005, dated 2009).

Entries after “also recorded” stand apart in the source; their conditions may differ. Square brackets hold non-standard residues; d marks the D form. Ends that are not written are not given here. Peptide text beside a SMILES is read from it. Phe(4-F) = N[C@@H](Cc1ccc(F)cc1)C(=O)O A value given as a limit tells only on which side of the number the result lay.

The first assay relates to T cell lines against a natural (non-mutated) epitope (SSX-241-49). Kind of assay: Cross-reactivity and functional avidity: IFN-gamma from T cell lines against natural SSX-2 41-49 epitope.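 Further: peptide analogs tested ex vivo with competent APCs, IFN-gamma in supernatant measured by ELISA, readouts include minimal triggering concentration, peak effect and concentration at peak.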 The class given is cell-based, HHD transgenic mice. As to conditions: IFN-gamma from T cell line raised against native SSX-2 41-49; native = 1, lower = more active.
As for `CC[C@H](C)[C@H](NC(=O)[C@H](CCCCN)NC(=O)[C@H](CCC(=O)O)NC(=O)[C@H](CO)NC(=O)[C@@H](NC(=O)[C@H](N)CCCCN)C(C)C)C(=O)N[C@@H](Cc1ccccc1)C(=O)N[C@@H](Cc1ccc(O)cc1)C(=O)N[C@H](C(=O)O)C(C)C` [SSX2 41-49 (K41(D-Lys), A42V)], the “Cross-reactivity and fct avidity (native to analogs)*” value is reported as 10.

As to `CC[C@H](C)[C@H](NC(=O)[C@H](CCCCN)NC(=O)[C@H](CCC(=O)O)NC(=O)[C@H](CO)NC(=O)[C@H](CC(C)C)NC(=O)[C@H](N)CCCCN)C(=O)N[C@@H](Cc1ccccc1)C(=O)N[C@@H](Cc1ccc(O)cc1)C(=O)N[C@H](C(=O)O)C(C)C` [SSX2 41-49 (K41(D-Lys), A42L)], the “Cross-reactivity and fct avidity (native to analogs)*” value is listed as 10.

In the case of “K(D-Val)SEKIFYV [SSX2 41-49 (A42(D-Val))]”, the “Cross-reactivity and fct avidity (native to analogs)*” value is 3.

With `CC[C@H](C)[C@H](NC(=O)[C@H](CCCCN)NC(=O)[C@H](CCC(=O)O)NC(=O)[C@H](CO)NC(=O)[C@H](C)NC(=O)[C@@H](N)Cc1c[nH]c2ccccc12)C(=O)N[C@@H](Cc1ccccc1)C(=O)N[C@@H](Cc1ccc(O)cc1)C(=O)N[C@H](C(=O)O)C(C)C` [SSX2 41-49 (K41W)], the “Cross-reactivity and fct avidity (native to analogs)*” value is listed as greater than 10.

Take `CC[C@H](C)[C@H](NC(=O)[C@H](CCCCN)NC(=O)[C@H](CCC(=O)O)NC(=O)[C@H](CO)NC(=O)[C@@H](NC(=O)[C@@H](N)Cc1ccc(O)cc1)[C@@H](C)CC)C(=O)N[C@@H](Cc1ccccc1)C(=O)N[C@@H](Cc1ccc(O)cc1)C(=O)N[C@H](C(=O)O)C(C)C` [SSX2 41-49 (K41Y, A42I)]: the “Cross-reactivity and fct avidity (native to analogs)*” value was 1.

For “FVSNKIFYV [SSX2 41-49 (K41F, A42V, E44N)]”, the “Cross-reactivity and fct avidity (native to analogs)*” value was greater than 10.

As to `CCCC[C@H](NC(=O)[C@H](Cc1ccc(O)cc1)NC(=O)[C@H](Cc1ccccc1)NC(=O)[C@@H](NC(=O)[C@H](CCCCN)NC(=O)[C@H](CCC(=O)O)NC(=O)[C@H](CO)NC(=O)[C@@H](NC(=O)[C@@H](N)Cc1ccccc1)C(C)C)[C@@H](C)CC)C(=O)O` [SSX2 41-49 (K41F, A42V, V49Nle)], the “Cross-reactivity and fct avidity (native to analogs)*” value is recorded as greater than 10.

For `CC[C@H](C)[C@H](NC(=O)[C@H](CCCCN)NC(=O)[C@H](CCC(=O)O)NC(=O)[C@H](CO)NC(=O)[C@H](CCSC)NC(=O)[C@@H](N)Cc1ccccc1)C(=O)N[C@@H](Cc1ccccc1)C(=O)N[C@@H](Cc1ccc(O)cc1)C(=O)N[C@H](C(=O)O)C(C)C` [SSX2 41-49 (K41F, A42M)], the “Cross-reactivity and fct avidity (native to analogs)*” value was 3.

For `CC[C@H](C)[C@H](NC(=O)[C@H](CCCCN)NC(=O)[C@H](CCC(=O)O)NC(=O)[C@H](CO)NC(=O)[C@@H](NC(=O)[C@@H](N)Cc1ccccc1)C(C)C)C(=O)N[C@@H](Cc1ccccc1)C(=O)N[C@@H](Cc1ccc(O)cc1)C(=O)N[C@@H](C)C(=O)O` [SSX2 41-49 (K41F, A42V, V49A)], the “Cross-reactivity and fct avidity (native to analogs)*” value came out at 1.

“K(D-Ala)SEKIFYV [SSX2 41-49 (A42(D-Ala))]”: the “Cross-reactivity and fct avidity (native to analogs)*” value amounted to 10.

For `CC[C@H](C)[C@H](NC(=O)[C@H](CCCCN)NC(=O)[C@H](CCC(=O)O)NC(=O)[C@H](CO)NC(=O)[C@@H](NC(=O)[C@@H](N)Cc1ccccc1)C(C)C)C(=O)N[C@@H](Cc1ccccc1)C(=O)N[C@@H](Cc1ccc(O)cc1)C(=O)N(C)[C@H](C(=O)O)C(C)C` [SSX2 41-49 (K41F, A42V, V49MeVal)], the “Cross-reactivity and fct avidity (native to analogs)*” value is listed as 10.

Consider KVSEKIFYV [SSX2 41-49-NH2 (A42V)], for which the “Cross-reactivity and fct avidity (native to analogs)*” value is 10.

Consider FVSEKLFTA, for which the “Cross-reactivity and fct avidity (native to analogs)*” value is greater than 10.

As to `CC[C@H](NC(=O)[C@@H](N)CCCCN)C(=O)N[C@@H](CO)C(=O)N[C@@H](CCC(=O)O)C(=O)N[C@@H](CCCCN)C(=O)N[C@H](C(=O)N[C@@H](Cc1ccccc1)C(=O)N[C@@H](Cc1ccc(O)cc1)C(=O)N[C@H](C(=O)O)C(C)C)[C@@H](C)CC` [SSX2 41-49 (A42(Abu)), KAbuSEKIFYV], the “Cross-reactivity and fct avidity (native to analogs)*” value was determined as 0.3.

In the case of `CC[C@H](C)[C@H](NC(=O)[C@H](CCCCN)NC(=O)[C@H](CCC(=O)O)NC(=O)[C@H](CO)NC(=O)[C@H](CC(C)C)NC(=O)[C@@H](N)Cc1ccccc1)C(=O)N[C@@H](Cc1ccccc1)C(=O)N[C@@H](Cc1ccc(O)cc1)C(=O)N[C@H](C(=O)O)C(C)C` [SSX2 41-49 (K41F, A42L)], the “Cross-reactivity and fct avidity (native to analogs)*” value was 0.3.

As to KLSEKIFYV [SSX2 41-49-NH2 (A42L)], the “Cross-reactivity and fct avidity (native to analogs)*” value is on record as 3.

For the molecule `CC[C@H](C)[C@H](NC(=O)[C@H](CCCCN)NC(=O)[C@H](CCC(=O)O)NC(=O)[C@H](CO)NC(=O)C(C)(C)NC(=O)[C@@H](N)CCCCN)C(=O)N[C@@H](Cc1ccccc1)C(=O)N[C@@H](Cc1ccc(O)cc1)C(=O)N[C@H](C(=O)O)C(C)C` [SSX2 41-49 (A42(Aib)), KAibSEKIFYV], the “Cross-reactivity and fct avidity (native to analogs)*” value came out at 3.

Take KVSEKIFYI [SSX2 41-49 (A42V, V491)]: the “Cross-reactivity and fct avidity (native to analogs)*” value was determined as 0.3.

On to `CCC[C@H](NC(=O)[C@@H](N)CCCCN)C(=O)N[C@@H](CO)C(=O)N[C@@H](CCC(=O)O)C(=O)N[C@@H](CCCCN)C(=O)N[C@H](C(=O)N[C@@H](Cc1ccccc1)C(=O)N[C@@H](Cc1ccc(O)cc1)C(=O)N[C@H](C(=O)O)C(C)C)[C@@H](C)CC` [SSX2 41-49 (A42(Nva)), KNvaSEKIFYV], for which the “Cross-reactivity and fct avidity (native to analogs)*” value is given as 0.1.

Consider `CCC[C@H](NC(=O)[C@H](Cc1ccc(O)cc1)NC(=O)[C@H](Cc1ccccc1)NC(=O)[C@@H](NC(=O)[C@H](CCCCN)NC(=O)[C@H](CCC(=O)O)NC(=O)[C@H](CO)NC(=O)[C@@H](NC(=O)[C@@H](N)Cc1ccccc1)C(C)C)[C@@H](C)CC)C(=O)O` [SSX2 41-49 (K41F, A42V, V49Nva)], for which the “Cross-reactivity and fct avidity (native to analogs)*” value amounted to 0.1.

On to `CC[C@H](C)[C@H](NC(=O)[C@H](CCCCN)NC(=O)[C@H](CCC(=O)O)NC(=O)[C@H](CO)NC(=O)[C@H](Cc1ccc2ccccc2c1)NC(=O)[C@@H](N)CCCCN)C(=O)N[C@@H](Cc1ccccc1)C(=O)N[C@@H](Cc1ccc(O)cc1)C(=O)N[C@H](C(=O)O)C(C)C` [SSX2 41-49 (A42(Nal-2)), KNal-2SEKIFYV], for which the “Cross-reactivity and fct avidity (native to analogs)*” value is given as 3.

On to KASEKIFYV [SSX2 41-49-NH2], for which the “Cross-reactivity and fct avidity (native to analogs)*” value was greater than 10.

As for `CCCC[C@H](NC(=O)[C@@H](N)CCCCN)C(=O)N[C@@H](CO)C(=O)N[C@@H](CCC(=O)O)C(=O)N[C@@H](CCCCN)C(=O)N[C@H](C(=O)N[C@@H](Cc1ccccc1)C(=O)N[C@@H](Cc1ccc(O)cc1)C(=O)N[C@H](C(=O)O)C(C)C)[C@@H](C)CC` [SSX2 41-49 (A42(Nle)), KNleSEKIFYV], the “Cross-reactivity and fct avidity (native to analogs)*” value is 0.1.

For `CC[C@H](C)[C@H](NC(=O)[C@H](CCCCN)NC(=O)[C@H](CCC(=O)O)NC(=O)[C@H](CO)NC(=O)[C@@H](NC(=O)[C@@H](N)Cc1ccccc1)C(C)C)C(=O)N[C@@H](Cc1ccccc1)C(=O)N[C@@H](Cc1ccc(O)cc1)C(=O)N[C@@H](CC(C)C)C(=O)O` [SSX2 41-49 (K41F, A42V, V49L)], the “Cross-reactivity and fct avidity (native to analogs)*” value is reported as greater than 10.

`CC[C@H](C)[C@H](NC(=O)[C@H](CCCCN)NC(=O)[C@H](CCC(=O)O)NC(=O)[C@H](CO)NC(=O)[C@H](C)NC(=O)[C@@H](N)Cc1ccc(F)cc1)C(=O)N[C@@H](Cc1ccccc1)C(=O)N[C@@H](Cc1ccc(O)cc1)C(=O)N[C@H](C(=O)O)C(C)C` [SSX2 41-49 (K41(Phe-4F))] (H-[Phe(4-F)]ASEKIFYV-OH): the “Cross-reactivity and fct avidity (native to analogs)*” value is given as 3.

On to “FVSEKIFY(Aib) [SSX2 41-49 (K41F, A42V, V49Aib)]”, for which the “Cross-reactivity and fct avidity (native to analogs)*” value is given as greater than 10.

With “FVSEKVFYV (T cell peptide epitope analog) [SSX2 41-49 (K41F, A42V, I46V)]”, the “Cross-reactivity and fct avidity (native to analogs)*” value amounted to 1.

Turning to `CC[C@H](C)[C@H](NC(=O)[C@H](CCCCN)NC(=O)[C@H](CCC(=O)O)NC(=O)[C@H](CO)NC(=O)[C@H](C)NC(=O)[C@@H](N)CCCCN)C(=O)N[C@@H](Cc1ccccc1)C(=O)N[C@@H](Cc1ccc(O)cc1)C(=O)N[C@H](C(=O)O)C(C)C` [SSX2 41-49, reference compound], the “Cross-reactivity and fct avidity (native to analogs)*” value is given as 1.

Turning to KNal-1SEKIFYV [SSX2 41-49 (A42(Nal-1))], the “Cross-reactivity and fct avidity (native to analogs)*” value is given as greater than 10.

Take `CC[C@H](C)[C@H](NC(=O)[C@H](CCCCN)NC(=O)[C@H](CCC(=O)O)NC(=O)[C@H](CO)NC(=O)[C@@H](NC(=O)[C@@H](N)Cc1c[nH]c2ccccc12)[C@@H](C)CC)C(=O)N[C@@H](Cc1ccccc1)C(=O)N[C@@H](Cc1ccc(O)cc1)C(=O)N[C@H](C(=O)O)C(C)C` [SSX2 41-49 (K41W, A42I)]: the “Cross-reactivity and fct avidity (native to analogs)*” value was 0.1.

Consider `CC[C@H](NC(=O)[C@H](Cc1ccc(O)cc1)NC(=O)[C@H](Cc1ccccc1)NC(=O)[C@@H](NC(=O)[C@H](CCCCN)NC(=O)[C@H](CCC(=O)O)NC(=O)[C@H](CO)NC(=O)[C@@H](NC(=O)[C@@H](N)Cc1ccccc1)C(C)C)[C@@H](C)CC)C(=O)O` [SSX2 41-49 (K41F, A42V, V49Abu)], for which the “Cross-reactivity and fct avidity (native to analogs)*” value stood at 1.

Regarding `CC[C@H](C)[C@H](NC(=O)[C@H](CCCCN)NC(=O)[C@H](CO)NC(=O)[C@H](CO)NC(=O)[C@@H](NC(=O)[C@@H](N)Cc1ccccc1)C(C)C)C(=O)N[C@@H](Cc1ccccc1)C(=O)N[C@@H](Cc1ccc(O)cc1)C(=O)N[C@H](C(=O)O)C(C)C` [SSX2 41-49 (K41F, A42V, E44S)], the “Cross-reactivity and fct avidity (native to analogs)*” value is greater than 10.

Take `CC[C@H](C)[C@H](NC(=O)[C@H](CCCCN)NC(=O)[C@@H](NC(=O)[C@H](CO)NC(=O)[C@@H](NC(=O)[C@@H](N)Cc1ccccc1)C(C)C)[C@@H](C)O)C(=O)N[C@@H](Cc1ccccc1)C(=O)N[C@@H](Cc1ccc(O)cc1)C(=O)N[C@H](C(=O)O)C(C)C` [SSX2 41-49 (K41F, A42V, E44T)]: the “Cross-reactivity and fct avidity (native to analogs)*” value was greater than 10.

The same assay, now with this note: SSX-2 41-49 analogs, wild-type specific T cells.
Consider “KASEKIFYVY [SSX-241-50, wild-type SSX-2 41-50 decamer peptide, reference compound]”, for which the “cross-reactivity / IFN-gamma inducing activity relative to wild-type, in words” value is on record as “significantly less active; also recorded: no immunological activity”.
